For assay [1], the system named is healthy male volunteers. Kind of assay: Evaluation of blood pressure normalization by oxidized coenzyme Q10 in healthy subjects. The following applies: for systolic blood pressure / diastolic blood pressure relative to before ingestion (100): 4 weeks after ingestion; for systolic blood pressure: before breakfast. Format: in vivo, human. On the procedure:
Healthy male volunteers (22 subjects) ingested soft capsule preparation containing oxidized coenzyme Q10 (150 mg) by 6 capsules (total 900 mg) per day, and the blood pressure before breakfast was measured before and after ingestion for 4 weeks. After the measurement, the subjects were divided into three groups of hypotension group (n=6, not more than 110 mmHg), normal blood pressure group (n=8, 110-130 mmHg) and mild hypertension group (n=8, 130-150 mmHg), according to the systolic blood pressure before ingestion, and analyzed. […] Consequently, a hypotension improving effect of oxidized coenzyme Q10 in healthy human subjects has been clarified.

Assay [2] deals with healthy male and female volunteers. Kind of assay: Evaluation of blood pressure normalization by reduced coenzyme Q10 in healthy subjects. The following applies: for systolic blood pressure / diastolic blood pressure relative to before ingestion (100): 4 weeks after ingestion; for systolic blood pressure: before breakfast; for change in blood pressure after ingestion as compared to before ingestion (in words): 150 mg per day for 4 weeks. Format: in vivo, human. The procedure:
Healthy male and female volunteers (20 subjects) ingested 5 soft capsules (total 150 mg) per day each containing 30 mg of reduced coenzyme Q10 (containing about 2% of oxidized coenzyme Q10), and the blood pressure before breakfast was measured before and after ingestion for 4 weeks. After the measurement, the subjects were divided into three groups of hypotension group (n=8, not more than 110 mmHg), normal blood pressure group (n=8, 110-130 mmHg) and mild hypertension group (n=4, 130-150 mmHg), according to the systolic blood pressure before ingestion, and analyzed.

As to `COC1=C(OC)C(=O)C(C/C=C(\C)CC/C=C(\C)CC/C=C(\C)CC/C=C(\C)CC/C=C(\C)CC/C=C(\C)CC/C=C(\C)CC/C=C(\C)CC/C=C(\C)CCC=C(C)C)=C(C)C1=O` [oxidized coenzyme Q10], the systolic blood pressure in assay [1] (hypotension group (n=6, not more than 110 mmHg), 900 mg per day soft capsules, before ingestion 105.5 ± 4.4) is given as 126.5 ± 2.9 mmHg; in assay [1] (mild hypertension group (n=8, 130-150 mmHg), 900 mg per day, before ingestion 135.8 ± 4.6), 134.8 ± 9.4 mmHg; in assay [1] (normal blood pressure group (n=8, 110-130 mmHg), 900 mg per day, before ingestion 126.1 ± 2.7), 127.6 ± 7.7 mmHg. Moreover, the “diastolic blood pressure relative to before ingestion (100)” value is “(120**)” in assay [1] (hypotension group, 900 mg per day, **p < 0.01 U-test); “(100)” in assay [1] (mild hypertension group, 900 mg per day); “(101)” in assay [1] (normal blood pressure group, 900 mg per day). Further, the “change in blood pressure after ingestion as compared to before ingestion (in words)” value in assay [1] (normal blood pressure group, 900 mg per day for 4 weeks) is listed as “did not show significant variations”.
As to `COc1c(O)c(C)c(C/C=C(\C)CC/C=C(\C)CC/C=C(\C)CC/C=C(\C)CC/C=C(\C)CC/C=C(\C)CC/C=C(\C)CC/C=C(\C)CC/C=C(\C)CCC=C(C)C)c(O)c1OC` [reduced coenzyme Q10], the systolic blood pressure is recorded as 117.5 ± 6.2 mmHg in assay [2] (hypotension group (n=8, not more than 110 mmHg), 150 mg per day soft capsules, before ingestion 99.6 ± 4.9); 125.1 ± 6.1 mmHg in assay [2] (mild hypertension group (n=4, 130-150 mmHg), 150 mg per day, before ingestion 140.5 ± 9.2); 125.5 ± 9.1 mmHg in assay [2] (normal blood pressure group (n=8, 110-130 mmHg), 150 mg per day, before ingestion 125.3 ± 3.1). The results for the “change in blood pressure after ingestion as compared to before ingestion (in words)” value in assay [2] (hypotension group), in assay [2] (mild hypertension group) and in assay [2] (normal blood pressure group) were “significant increase in the blood pressure”, “significant decrease in the blood pressure” and “did not show significant variations”, respectively. Besides, the “diastolic blood pressure relative to before ingestion (100)” value is “(118**)” in assay [2] (hypotension group, 150 mg per day, **p < 0.01 U-test); “(89*)” in assay [2] (mild hypertension group, 150 mg per day, *p < 0.05 U-test); “(100)” in assay [2] (normal blood pressure group, 150 mg per day).

(Values after patent publication US20090098097A1, “COMPOSITION FOR NORMALIZING BLOOD PRESSURE” (KANEKA CORPORATION, priority 2006, published 2009).)
